Results as given in patent US9695155B2, “Herbicidal substituted pyrimidinyloxy benzene compounds” (E. I. DU PONT DE NEMOURS AND COMPANY, priority 2013, dated 2017).

What was measured:
giant foxtail [1] = assay: Test C postemergence; type: in vivo, Setaria faberii; details: for Plant response rating (0 to 100), Foxtail, Giant: postemergence; for Plant response rating, Foxtail, Giant: Postemergence, scale 0 to 100 (0 no effect, 100 complete control)
Outline: (§1)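 Injury was assessed visually against controls 13 to 15 days after application, with 0 meaning no effect and 100 full control; missing entries are shown as a dash. Preemergence sprays hit seeded loam–sand soil, postemergence sprays hit 1- to 4-leaf plants.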

morningglory [2] = assay: Test A postemergence; type: in vivo, Ipomoea spp.
Outline: (§2)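 Visual 0–100 rating (100 = complete control) taken about 10 d post-treatment relative to untreated checks. Preemergence: directed soil spray on sown loam/sand pots. Postemergence: seedlings 2–10 cm, 1–2 leaf. Non-phytotoxic solvent formulation with surfactant.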

velvetleaf [3] = assay: Test A preemergence; type: in vivo, Abutilon theophrasti; details: for Plant response rating, Velvetleaf: 125 g ai/ha, 0 to 100 scale where 0 is no effect and 100 is complete control; for Velvetleaf plant response rating: 500 g ai/ha, 0 to 100 scale, 0 no effect, 100 complete control, approx. 10 days
Outline: as §2

waterhemp = assay: Test C postemergence; type: in vivo, Amaranthus rudis; details: for Plant response rating (0 to 100), Waterhemp: postemergence; for Plant response rating, Waterhemp: Postemergence, scale 0 to 100 (0 no effect, 100 complete control)
Outline: as §1

large (Lg) crabgrass = assay: Test A preemergence; type: in vivo, Digitaria sanguinalis; details: for Plant response rating, Crabgrass, Large: 125 g ai/ha, 0 to 100 scale where 0 is no effect and 100 is complete control; for Crabgrass, Large plant response rating: 500 g ai/ha, 0 to 100 scale, 0 no effect, 100 complete control, approx. 10 days
Outline: as §2

giant foxtail [4] = assay: Test A postemergence; type: in vivo, Setaria faberii
Outline: as §2

pigweed = assay: Test C postemergence; type: in vivo, Amaranthus retroflexus; details: for Plant response rating (0 to 100), Pigweed: postemergence; for Plant response rating, Pigweed: Postemergence, scale 0 to 100 (0 no effect, 100 complete control)
Outline: as §1

oilseed rape = assay: Test C postemergence; type: in vivo, Brassica napus; details: for Plant response rating (0 to 100), Oilseed Rape: postemergence; for Plant response rating, Oilseed Rape: Postemergence, scale 0 to 100 (0 no effect, 100 complete control)
Outline: as §1

corn [5] = assay: Test A postemergence; type: in vivo, Zea mays
Outline: as §2

corn [6] = assay: Test C postemergence; type: in vivo, Zea mays; details: for Plant response rating (0 to 100), Corn: postemergence; for Plant response rating, Corn: Postemergence, scale 0 to 100 (0 no effect, 100 complete control)
Outline: as §1

velvetleaf [7] = assay: Test C postemergence; type: in vivo, Abutilon theophrasti; details: for Plant response rating (0 to 100), Velvetleaf: postemergence; for Plant response rating, Velvetleaf: Postemergence, scale 0 to 100 (0 no effect, 100 complete control)
Outline: as §1

Heteranthera limosa = assay: Test B flooded paddy test; type: in vivo; details: Flood, 250 g ai/ha; 0 to 100 scale where 0 is no effect and 100 is complete control
Outline: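 Scores from 0 (no effect) to 100 (complete control) are visual comparisons with controls, taken 13 to 15 days after compound was applied into floodwater 3 cm deep around 2-leaf plants.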

corn [8] = assay: Test A preemergence; type: in vivo, Zea mays; details: for Plant response rating, Corn: 125 g ai/ha, 0 to 100 scale where 0 is no effect and 100 is complete control; for Corn plant response rating: 500 g ai/ha, 0 to 100 scale, 0 no effect, 100 complete control, approx. 10 days
Outline: as §2

barnyardgrass = assay: Test A postemergence; type: in vivo, Echinochloa crus-galli
Outline: as §2

johnsongrass = assay: Test C postemergence; type: in vivo, Sorghum halepense; details: for Plant response rating (0 to 100), Johnsongrass: postemergence; for Plant response rating, Johnsongrass: Postemergence, scale 0 to 100 (0 no effect, 100 complete control)
Outline: as §1

morningglory [9] = assay: Test C postemergence; type: in vivo, Ipomoea coccinea; details: for Plant response rating (0 to 100), Morningglory: postemergence; for Plant response rating, Morningglory: Postemergence, scale 0 to 100 (0 no effect, 100 complete control)
Outline: as §1

[10] = 125 g ai/ha, 0 to 100 scale where 0 is no effect and 100 is complete control
[11] = 500 g ai/ha, 0 to 100 scale where 0 is no effect and 100 is complete control
[12] = 500 g ai/ha, 0 to 100 scale, 0 no effect, 100 complete control

N#Cc1cccc(Oc2ncc(Cl)cn2)c1-n1cc(Cl)cn1 [Compound 72]
Plant response rating (0 to 100), Foxtail, Giant (giant foxtail [1]; 125 g ai/ha): 10 | Plant response rating (0 to 100), Foxtail, Giant (giant foxtail [1]; 250 g ai/ha): 65 | Plant response rating, Foxtail, Giant (giant foxtail [1]; 31 g ai/ha, 13 to 15 days): 10 | Plant response rating, Foxtail, Giant (giant foxtail [1]; 62 g ai/ha): 10 | Plant response rating, Morningglory (morningglory [2]; [10]): 90 | Plant response rating, Morningglory (morningglory [2]; [11]): 100 | Plant response rating, Velvetleaf (velvetleaf [3]): 90 | Velvetleaf plant response rating (velvetleaf [3]): 100 | Plant response rating (0 to 100), Waterhemp (waterhemp; 125 g ai/ha): 75 | Plant response rating (0 to 100), Waterhemp (waterhemp; 250 g ai/ha): 95 | Plant response rating, Waterhemp (waterhemp; 31 g ai/ha, 13 to 15 days): 75 | Plant response rating, Waterhemp (waterhemp; 62 g ai/ha): 75 | Plant response rating, Crabgrass, Large (large (Lg) crabgrass): 100 | Crabgrass, Large plant response rating (large (Lg) crabgrass): 100 | Plant response rating, Foxtail, Giant (giant foxtail [4]; [10]): 90 | Plant response rating, Foxtail, Giant (giant foxtail [4]; [11]): 100 | Plant response rating (0 to 100), Pigweed (pigweed; 125 g ai/ha): 85 | Plant response rating (0 to 100), Pigweed (pigweed; 250 g ai/ha): 95 | Plant response rating, Pigweed (pigweed; 31 g ai/ha, 13 to 15 days): 70 | Plant response rating, Pigweed (pigweed; 62 g ai/ha): 80 | Plant response rating (0 to 100), Oilseed Rape (oilseed rape; 125 g ai/ha): 70 | Plant response rating (0 to 100), Oilseed Rape (oilseed rape; 250 g ai/ha): 90 | Plant response rating, Oilseed Rape (oilseed rape; 31 g ai/ha, 13 to 15 days): 55 | Plant response rating, Oilseed Rape (oilseed rape; 62 g ai/ha): 70 | Plant response rating, Corn (corn [5]; [10]): 50 | Plant response rating, Corn (corn [5]; [12]): 60 | Plant response rating (0 to 100), Corn (corn [6]; 125 g ai/ha): 15 | Plant response rating (0 to 100), Corn (corn [6]; 250 g ai/ha): 20 | Plant response rating, Corn (corn [6]; 31 g ai/ha, 13 to 15 days): 5 | Plant response rating, Corn (corn [6]; 62 g ai/ha): 10 | Plant response rating (0 to 100), Velvetleaf (velvetleaf [7]; 125 g ai/ha): 55 | Plant response rating (0 to 100), Velvetleaf (velvetleaf [7]; 250 g ai/ha): 75 | Plant response rating, Velvetleaf (velvetleaf [7]; 31 g ai/ha, 13 to 15 days): 40 | Plant response rating, Velvetleaf (velvetleaf [7]; 62 g ai/ha): 40 | Plant response rating, Ducksalad (Heteranthera limosa): 75 | Plant response rating, Corn (corn [8]): 30 | Corn plant response rating (corn [8]): 50 | Plant response rating, Barnyardgrass (barnyardgrass; [10]): 90 | Plant response rating, Barnyardgrass (barnyardgrass; [12]): 100 | Plant response rating (0 to 100), Johnsongrass (johnsongrass; 125 g ai/ha): 5 | Plant response rating (0 to 100), Johnsongrass (johnsongrass; 250 g ai/ha): 25 | Plant response rating, Johnsongrass (johnsongrass; 31 g ai/ha, 13 to 15 days): 0 | Plant response rating, Johnsongrass (johnsongrass; 62 g ai/ha): 5 | Plant response rating (0 to 100), Morningglory (morningglory [9]; 125 g ai/ha): 85 | Plant response rating (0 to 100), Morningglory (morningglory [9]; 250 g ai/ha): 90 | Plant response rating, Morningglory (morningglory [9]; 31 g ai/ha, 13 to 15 days): 75 | Plant response rating, Morningglory (morningglory [9]; 62 g ai/ha): 75

Fc1cnc(Oc2ccccc2-n2cc(C(F)(F)F)cn2)nc1 [Compound 47]
Plant response rating (0 to 100), Foxtail, Giant (giant foxtail [1]; 125 g ai/ha): 25 | Plant response rating (0 to 100), Foxtail, Giant (giant foxtail [1]; 250 g ai/ha): 80 | Plant response rating, Foxtail, Giant (giant foxtail [1]; 31 g ai/ha, 13 to 15 days): 10 | Plant response rating, Foxtail, Giant (giant foxtail [1]; 62 g ai/ha): 25 | Plant response rating, Morningglory (morningglory [2]; [10]): 80 | Plant response rating, Morningglory (morningglory [2]; [12]): 100 | Plant response rating, Velvetleaf (velvetleaf [3]): 100 | Velvetleaf plant response rating (velvetleaf [3]): 100 | Plant response rating (0 to 100), Waterhemp (waterhemp; 125 g ai/ha): 100 | Plant response rating (0 to 100), Waterhemp (waterhemp; 250 g ai/ha): 100 | Plant response rating, Waterhemp (waterhemp; 31 g ai/ha, 13 to 15 days): 100 | Plant response rating, Waterhemp (waterhemp; 62 g ai/ha): 100 | Plant response rating, Crabgrass, Large (large (Lg) crabgrass): 90 | Crabgrass, Large plant response rating (large (Lg) crabgrass): 100 | Plant response rating, Foxtail, Giant (giant foxtail [4]; [10]): 80 | Plant response rating, Foxtail, Giant (giant foxtail [4]; [12]): 100 | Plant response rating (0 to 100), Pigweed (pigweed; 125 g ai/ha): 65 | Plant response rating (0 to 100), Pigweed (pigweed; 250 g ai/ha): 70 | Plant response rating, Pigweed (pigweed; 31 g ai/ha, 13 to 15 days): 40 | Plant response rating, Pigweed (pigweed; 62 g ai/ha): 55 | Plant response rating (0 to 100), Oilseed Rape (oilseed rape; 125 g ai/ha): 55 | Plant response rating (0 to 100), Oilseed Rape (oilseed rape; 250 g ai/ha): 55 | Plant response rating, Oilseed Rape (oilseed rape; 31 g ai/ha, 13 to 15 days): 15 | Plant response rating, Oilseed Rape (oilseed rape; 62 g ai/ha): 50 | Plant response rating, Corn (corn [5]; [10]): 40 | Plant response rating, Corn (corn [5]; [12]): 90 | Plant response rating (0 to 100), Corn (corn [6]; 125 g ai/ha): 5 | Plant response rating (0 to 100), Corn (corn [6]; 250 g ai/ha): 5 | Plant response rating, Corn (corn [6]; 31 g ai/ha, 13 to 15 days): 0 | Plant response rating, Corn (corn [6]; 62 g ai/ha): 0 | Plant response rating (0 to 100), Velvetleaf (velvetleaf [7]; 125 g ai/ha): 70 | Plant response rating (0 to 100), Velvetleaf (velvetleaf [7]; 250 g ai/ha): 100 | Plant response rating, Velvetleaf (velvetleaf [7]; 31 g ai/ha, 13 to 15 days): 45 | Plant response rating, Velvetleaf (velvetleaf [7]; 62 g ai/ha): 50 | Plant response rating, Ducksalad (Heteranthera limosa): 95 | Plant response rating, Corn (corn [8]): 0 | Corn plant response rating (corn [8]): 90 | Plant response rating, Barnyardgrass (barnyardgrass; [10]): 30 | Plant response rating, Barnyardgrass (barnyardgrass; [12]): 100 | Plant response rating (0 to 100), Johnsongrass (johnsongrass; 125 g ai/ha): 5 | Plant response rating (0 to 100), Johnsongrass (johnsongrass; 250 g ai/ha): 5 | Plant response rating, Johnsongrass (johnsongrass; 31 g ai/ha, 13 to 15 days): 0 | Plant response rating, Johnsongrass (johnsongrass; 62 g ai/ha): 5 | Plant response rating (0 to 100), Morningglory (morningglory [9]; 125 g ai/ha): 70 | Plant response rating (0 to 100), Morningglory (morningglory [9]; 250 g ai/ha): 75 | Plant response rating, Morningglory (morningglory [9]; 31 g ai/ha, 13 to 15 days): 20 | Plant response rating, Morningglory (morningglory [9]; 62 g ai/ha): 70
